Patent publication US20250145715A1, “B7-H3 TARGETING FUSION PROTEINS AND METHODS OF USE THEREOF” (GT Biopharma, Inc., priority 2021, published 2025)

How the values were obtained:
Format in all cases: cell-based, human
lung cancer cell lines = assay: NK cell activation against lung cancer cell lines vs K562 / Raji
Description: ADCC was measured in a flow cytometry assay by evaluating degranulation via CD107a (lysosomal-associated membrane protein LAMP-1) and intracellular IFNγ production. Upon thawing, normal donor and patient-derived PBMCs or ascites cells were rested overnight (37° C., 5% CO2) in RPMI 1640 media supplemented with 10% fetal calf serum (RPMI-10). The next morning, they were suspended with tumor-target cells or media after washing twice with RPMI-10. Cells were then incubated with TriKEs or controls for 10 min at 37° C. Fluorescein isothiocyate (FITC)-conjugated anti-human CD107a monoclonal antibody (BD Biosciences, San Jose, CA, USA) was then added. Following an hour 37° C. incubation, GolgiStop (1:1500, BD Biosciences) and GolgiPlug (1:1000, BD Biosciences) were added for 3 h. After washing with phosphate buffered saline, the cells were stained with PE/Cy 7-conjugated anti-CD56 mAb, APC/Cy 7-conjugated anti-CD16 mAb, and PE-CF594-conjugated anti-CD3 mAb (BioLegend, San Diego, CA, USA). Cells were incubated for 15 min at 4° C., washed, and fixed with 2% paraformaldehyde. Cells were then permeabilized using an intracellular perm buffer (BioLegend) to evaluate production of IFNγ through detection via aBV650 conjugated anti-human IFNγ antibody (BioLegend). Samples were washed and evaluated in an LSRII flow cytometer (BD Biosciences, San Jose, CA, USA). […]

OVCAR8 cells = assay: IncuCyte real-time tumor-killing assay, OVCAR8; conditions: enriched NK cells, E:T 2:1, 30 nM, 48 h; vs controls
Description: Healthy donor or ovarian cancer PBMC cells were incubated with ovarian tumor targets at 2:1 E:T ratio for 4 hrs with 30 nM TriKE or control condition. FIG. 30A is a graph illustrating pooled proportion of NK cells from healthy donors expressing CD107a+ (degranulation) against OVCAR8 targets (N=8). FIG. 30B is a graph illustrating pooled proportion of NK cells from healthy donors expressing IFNγ cytokine production against OVCAR8 targets (N=8). FIG. 30C is a graph illustrating pooled proportion of NK cells from healthy donors expressing CD107a+ (degranulation) against OVCAR3 targets (N=4). […] FIG. 30I is a graph illustrating that tumor killing was evaluated using IncuCyte imaging assay. […] The percentage of Live (Nuclight Red+Caspase 3/7−) tumor cells was quantified over a 48-h period and normalized to tumor alone. Readings were obtained every 15 min (representative of four separate experiments). * p<0.05, ** p<0.01, *** p<0.001, and **** p<0.0001.
Tumor killing was evaluated in real-time using the IncuCyte platform. […] Caspase-3/7 green dye (Sartorious, Ann Arbor, MI, USA) was added to pick up dying cells that have not yet lost NuclightRed fluorescence. […] Images from three technical replicates were taken every 15 min for 48 h using a 4× objective lens and then analyzed using IncuCyte™ Basic Software v2018A (Sartorious). […]

A549 lung cancer cells = assay: NK cell CD107a / IFNγ flow cytometry against A549; conditions: normal donor PBMCs, vs controls
Source text: FIGS. 24A-24F illustrate that B7-H3 TriKE enhances NK cell function against lung tumor targets. FIG. 24A is a graph showing pooled analysis of proportion of NK cells from healthy donors expressing CD107a+ against A549(N=6) tumor targets. FIG. 24B is a graph showing pooled analysis of proportion of NK cells from healthy donors expressing IFNγ against A549(N=6) tumor targets. FIG. 24C is a graph showing pooled analysis of proportion of NK cells from healthy donors expressing CD107a+ against NCI-H322 (N=5) tumor targets. FIG. 24D is a graph showing pooled analysis of proportion of NK cells from healthy donors expressing IFNγ against NCI-H322 (N=5) tumor targets. FIG. 24E is a graph showing pooled proportion of NK cells from healthy donors (black bars) or lung cancer patients (white bars) expressing CD107a+ against NCI-H460 (N=7). FIG. 24F is a graph showing pooled proportion of NK cells from healthy donors (black bars) or lung cancer patients (white bars) expressing IFNγ against NCI-H460 (N=7). ** p<0.01, *** p<0.001, and **** p<0.0001.
ADCC was measured in a flow cytometry assay by evaluating degranulation via CD107a (lysosomal-associated membrane protein LAMP-1) and intracellular IFNγ production. […] Samples were washed and evaluated in an LSRII flow cytometer (BD Biosciences, San Jose, CA, USA). […]

Q: With “cam1615B7-H3: second-generation TriKE: humanized camelid anti-CD16 VHH, human wild-type IL-15, anti-B7-H3 mAb 376.96 scFv; SEQ ID NO:1” as the substance, how does the “NK cell degranulation and IFNγ production against lung cancer cells vs K562 targets alone” value (lung cancer cell lines) read?
A: Its value is “higher than that seen when NK cells are incubated with K562 targets alone”.

Q: And the “B7-H3 specificity of activation against lung cancer cell lines” value (lung cancer cell lines; vs B7-H3− Raji cells)?
A: The value was “specific to B7-H3 expression”.

Q: What about the “killing of OVCAR8 tumor cells over two days” value (OVCAR8 cells) of the same substance?
A: Its value is “robust and rapid tumor killing”.

Q: What about the “NK cell activation against A549” value (A549 lung cancer cells) of the same substance?
A: The value was “significantly and robustly improved NK cell activation”.
